This is an account of results in patent US11832662B2, “Methods and devices for preventing viral transmission” (priority 2020, dated 2023).

Read-outs that look alike come from different tables or passages of the source.

Assay [1] concerns HUVEC cells. The assay is described as follows: EF-induced elongation of endothelial cells (long:short axis ratio). In kind it is cell-based, human. The note with it: versus control. How it is done: HUVEC cells were seeded in a trough formed by two parallel (1 cm apart) strips of glass coverslip (No. 1, length of 22 mm) fixed to the base of the dish with silicone grease. Scratch lines were made perpendicular to the long axis of the chamber with a fine sterile needle and used as reference marks for directed cell migration. Cells were incubated for 24-48 hours (37° C., 5% CO2) before a roof coverslip was applied and sealed with silicone grease. The final dimensions of the chamber, through which current was passed, were 22×10×0.2 mm. Agar-salt bridges not less than 15 cm long were used to connect silver/silver-chloride electrodes in beakers of Steinberg's solution (58 mM NaCl, 0.67 mM KCl, 0.44 mM Ca(NO3)2, 1.3 mM MgSO4, 4.6 mM Trizma base, pH 7.8-8.0), to pools of excess culture medium at either side of the chamber. Field strengths were measured directly at the beginning of, the end of and during each experiment. No fluctuations in field strength were observed. […] (50 μM), the Rho kinase inhibitor Y27632 (50 μM), both Akt and Rho kinase inhibitors (10 μM each) or latrunculin (50 nM) for 1 hour before EF stimulation. The same concentration of drug was present during EF exposure in a CO2 incubator.
A series of images was taken with an image analyser immediately before EF exposure and at 4, 8 and 24 hours of EF exposure. Cell orientation was quantified as an orientation index (Oi), which is defined as Oi=cos 2(α), where a is the angle formed by the long axis of a cell with a line drawn perpendicular to the field lines. A cell with its long axis parallel to the vector of the EF will have an Oi of −1, and a cell with its long axis exactly perpendicular to the EF vector will have an Oi of +1. […] The significance of this two-dimensional orientation distribution against randomness was calculated using Rayleigh's distribution. A long:short axis ratio was calculated for assessment of elongation.
HUVEC cells elongated dramatically in an EF. […] We quantified the elongation of the cells using a long:short axis ratio. […]

Assay [2] relates to HUVEC cells. The assay is described as follows: EF-induced reorientation of endothelial cells (orientation index Oi). In kind it is cell-based, human.
Method: HUVEC cells were seeded in a trough formed by two parallel (1 cm apart) strips of glass coverslip (No. 1, length of 22 mm) fixed to the base of the dish with silicone grease. Scratch lines were made perpendicular to the long axis of the chamber with a fine sterile needle and used as reference marks for directed cell migration. Cells were incubated for 24-48 hours (37° C., 5% CO2) before a roof coverslip was applied and sealed with silicone grease. The final dimensions of the chamber, through which current was passed, were 22×10×0.2 mm. Agar-salt bridges not less than 15 cm long were used to connect silver/silver-chloride electrodes in beakers of Steinberg's solution (58 mM NaCl, 0.67 mM KCl, 0.44 mM Ca(NO3)2, 1.3 mM MgSO4, 4.6 mM Trizma base, pH 7.8-8.0), to pools of excess culture medium at either side of the chamber. Field strengths were measured directly at the beginning of, the end of and during each experiment. […] (50 μM), the Rho kinase inhibitor Y27632 (50 μM), both Akt and Rho kinase inhibitors (10 μM each) or latrunculin (50 nM) for 1 hour before EF stimulation. The same concentration of drug was present during EF exposure in a CO2 incubator.
A series of images was taken with an image analyser immediately before EF exposure and at 4, 8 and 24 hours of EF exposure. Cell orientation was quantified as an orientation index (Oi), which is defined as Oi=cos 2(α), where a is the angle formed by the long axis of a cell with a line drawn perpendicular to the field lines. A cell with its long axis parallel to the vector of the EF will have an Oi of −1, and a cell with its long axis exactly perpendicular to the EF vector will have an Oi of +1. A randomly oriented population of cells will have an average Oi {defined as [Σn cos 2(α)]÷n} of 0. The significance of this two-dimensional orientation distribution against randomness was calculated using Rayleigh's distribution. A long:short axis ratio was calculated for assessment of elongation.
Assay [3] has as its system HaCaT human keratinocytes. The assay can be described thus: Scratch assay, keratinocyte migration, Example 3. The class given is cell-based. The note with it: LLEC-treated cells, N-acetylcysteine 5 mM 1 h pretreatment, IGF-1R inhibitor picropodophyllin 50 nM.
[4] abbreviates: drug present 1 hour before and during EF exposure.

In the case of “1-L-6-hydroxymethyl-chiro-inositol 2-[(R)-2-O-methyl-3-O-octadecylcarbonate] [Akt inhibitor]”, in assay [1], the “long:short axis ratio / elongation response in EF-treated cells” value is reported as “significantly decreased”. For the same compound, in assay [2] (setting [4]), the “orientation response of cells in an EF” value is on record as “significantly decreased”.

Consider `C/C1=C/C(=O)O[C@@H]2C[C@@H](CC[C@H](C)/C=C\C=C\CC1)O[C@@](O)([C@@H]1CSC(=O)N1)C2` [Latrunculin A], for which the “long:short axis ratio / elongation response in EF-treated cells” value in assay [1] is “completely abolished”. In assay [2] (setting [4]), the “orientation response of cells in an EF” value is “suppressed the orientation response significantly”.

Take `COc1cc([C@@H]2c3cc4c(cc3[C@H](O)[C@H]3COC(=O)[C@@H]23)OCO4)cc(OC)c1OC` [IGF-1R inhibitor, picropodophyllin]: the “LLEC-increased keratinocyte migration in presence of blocker” value in assay [3] is given as “attenuated the increased keratinocyte migration”.

Regarding `C[C@@H](N)[C@H]1CC[C@H](C(=O)Nc2ccncc2)CC1` [Y27632], in assay [1], the “long:short axis ratio / elongation response in EF-treated cells” value was “significantly decreased”. The “orientation response of cells in an EF” value in assay [2] (setting [4]) is reported as “decreased the orientation response significantly”.

On to `CC(=O)N[C@@H](CS)C(=O)O` [N-Acetyl Cysteine], for which the “LLEC-increased keratinocyte migration in presence of blocker” value is on record as “failed to reproduce the increased migration” in assay [3] and “prevented” in assay [3] (listed as N-acetyl cysteine).

Turning to `COc1cc2ncnc(Nc3ccc(Cl)cc3F)c2cc1OC` [VEGFR inhibitor, 4-[(4′-chloro-2′-fluoro)phenylamino]-6,7-dimethoxyquinazoline], in assay [2] (setting [4]), the “orientation response of cells in an EF” value was “completely abolished”.

In the case of `N#CC(=C(/N)Sc1ccccc1N)/C(C#N)=C(\N)Sc1ccccc1N` [U0126], in assay [2], the “orientation index Oi” value was found to be 0.33±0.03 and the “orientation response of cells in an EF” value is reported as “decreased the orientation to a similar extent”.
